In patent US10815224B2, “Monocyclic heteroaryl substituted compounds” (Bristol-Myers Squibb Company, priority 2016, dated 2020):

Target: T1, PAR4 (Homo sapiens, UniProt Q96RI0)
T1 construct: expressed in transfected cells; host or cells: HEK293 PAR4 Clone 1.2A (BMS Arctic ID 383940)
T1 sequence (Q96RI0 18-385): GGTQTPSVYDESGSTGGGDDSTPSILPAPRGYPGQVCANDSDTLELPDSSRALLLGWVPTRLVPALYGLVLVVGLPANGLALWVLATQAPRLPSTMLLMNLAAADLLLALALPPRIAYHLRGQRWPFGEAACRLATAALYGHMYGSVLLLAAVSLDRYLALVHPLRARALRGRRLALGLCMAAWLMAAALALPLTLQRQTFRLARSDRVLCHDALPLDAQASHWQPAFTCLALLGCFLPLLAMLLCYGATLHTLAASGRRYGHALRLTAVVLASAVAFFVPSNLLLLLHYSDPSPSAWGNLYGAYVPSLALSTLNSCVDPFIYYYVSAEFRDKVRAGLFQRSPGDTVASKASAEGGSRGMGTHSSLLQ
Assay: PAR4 FLIPR assay: calcium mobilization in PAR4-expressing HEK293 cells
Format: cell-based
Description: The FLIPR assay is an exemplary in vitro assay for measuring the activity of the PAR4 antagonists of the present invention. In this assay, intracellular calcium mobilization is induced in PAR4 expressing cells by a PAR4 agonist and calcium mobilization is monitored.
HEK293 cells stably expressing PAR4 were generated by a standard method of transfection of human PAR4 (F2R23) cDNA expression vector and selected based on PAR4 protein expression or mRNA expression. […] Therefore, the same cells were also used to determine selectivity against PAR1 and agonist activity for both receptors.
FLIPR-based calcium mobilization assay in HEK293 cells was used to measure PAR4 antagonism, agonism, and selectivity against PAR1. […] Counter screens for agonist activity and PAR1 antagonist activity were also performed. […] Cells were plated overnight prior to the experiment in a black 384-well Purecoat Amine clear bottom plate (Becton Dickinson Biosciences, San Jose, Calif.) at 10,000 cells/well in 30 μL growth medium and incubated in a humidified chamber at 37° C. with 5% CO2 overnight. Prior to compound addition, the cell medium was replaced with 40 μL of 1× calcium and magnesium-containing Hank's Balanced Saline Solution (HBSS) (with 20 mM HEPES) and 1:1000 diluted fluorescent calcium indicator (Codex Biosolutions, Gaithersburg, Md.). After a 30 minute incubation period at 37° C., and a further 30 minute incubation and equilibration period at room temperature, 20 μL test compound (diluted in 1×HBSS buffer) was added at various concentrations at 0.17% dimethyl sulfoxide (DMSO) final concentration. Changes in fluorescence intensity were measured using a Functional Drug Screening System (FDSS, Hamamatsu, Japan) to determine agonist activities. The cells were then incubated for 30 minutes at room temperature followed by addition of 20 μL of agonist peptide for antagonist activity measurement. […] Compound potency was derived from 11-point concentration-response curves.

Going from `COc1cnc2c(-c3cc(-c4ccccc4)no3)cc(C)cc2n1` [Example 1, 5-(2-methoxy-7-methylquinoxalin-5-yl)-3-phenylisoxazole] to `Cc1cc(-c2cnc(-c3ccccc3)s2)c2ncc(OC(F)F)nc2c1` [Example 3, 5-(2-(difluoromethoxy)-7-methylquinoxalin-5-yl)-2-phenylthiazole], the IC50 rises from 80 nM to 330 nM (4.1-fold). The first is the more potent here.

Compared with `Cc1cc(-c2cnn(-c3ccccc3)c2)c2ncc(OC(F)F)nc2c1` [Example 2, 2-(difluoromethoxy)-7-methyl-5-(1-phenyl-1H-pyrazol-4-yl)quinoxaline], `Cc1cc(-c2ncc(-c3ccccc3)s2)c2ncc(OC(F)F)nc2c1` [Example 28, 2-(2-(difluoromethoxy)-7-methylquinoxalin-5-yl)-5-phenyl thiazole] is 18-fold lower in IC50: 790 nM for the first, 43 nM for the second. The second is the more potent here.

Compared with `Cc1cc(-c2ncc(C)s2)c2ncc(OC(F)F)nc2c1` [Example 4, 2-(2-(difluoromethoxy)-7-methylquinoxalin-5-yl)-5-methylthiazole], `Cc1ccc(O)c(-c2cnc(-c3cc(C)cc4nc(OC(F)F)cnc34)s2)c1` [Example 20, 2-(2-(2-(difluoromethoxy)-7-methylquinoxalin-5-yl)thiazol-5-yl)-4-methylphenol] is 17-fold lower in IC50: 520 nM for the first, 31 nM for the second.

First: Cc1cc(-c2ccsn2)c2ncc(OC(F)F)nc2c1 [Example 5, 3-(2-(difluoromethoxy)-7-methylquinoxalin-5-yl)isothiazole]
Second: C=Cc1csc(-c2cc(C)cc3nc(OC(F)F)cnc23)n1 [Example 8, 2-(2-(difluoromethoxy)-7-methylquinoxalin-5 yl)-4-vinylthiazole]
The IC50 of the first is 9.4-fold higher: 940 nM for the first, 100 nM for the second.

Compared with `Cc1cc(-c2nc(C)c(-c3cccc(O)c3)s2)c2ncc(OC(F)F)nc2c1` [Example 6, 3-(2-(2-(difluoromethoxy)-7-methylquinoxalin-5-yl)-4-methylthiazol-5-yl)phenol], `Cc1cc(-c2nc(C)c(-c3ccccc3O)s2)c2ncc(OC(F)F)nc2c1` [Example 15, 2-(2-(2-(difluoromethoxy)-7-methylquinoxalin-5-yl)-4-methylthiazol-5-yl)phenol] is 5.9-fold higher in IC50: 1 nM for the first, 5.9 nM for the second. The first is the more potent here.

First: Cc1cc(-c2ncc(Cc3ccccc3)s2)c2ncc(OC(F)F)nc2c1 [Example 7, 5-benzyl-2-(2-(difluoromethoxy)-7-methylquinoxalin-5-yl)thiazole]
Second: Cc1cc(-c2ncc(-c3ccccc3O)s2)c2ncc(OC(F)F)nc2c1 [Example 30, 2-(2-(2-(difluoromethoxy)-7-methylquinoxalin-5-yl)thiazol-5-yl)phenol]
The IC50 of the first is 11-fold higher: 95 nM for the first, 8.8 nM for the second.

Going from `Cc1cc(-c2nc(C)c(-c3ccn[nH]3)s2)c2ncc(OC(F)F)nc2c1` [Example 9, 2-(2-(difluoromethoxy)-7-methylquinoxalin-5-yl)-4-methyl-5-(1H-pyrazol-5-yl)thiazole] to `Cc1cc(-c2nc(C)c(-c3cc(F)ccc3O)s2)c2ncc(OC(F)F)nc2c1` [Example 11, 2-(2-(2-(difluoromethoxy)-7-methylquinoxalin-5-yl)-4-methylthiazol-5-yl)-4-fluoropheno], the IC50 rises from 5 nM to 7.5 nM (1.5-fold).

Going from `Cc1cc(-c2nc(C3CC3)cs2)c2ncc(OC(F)F)nc2c1` [Example 10, 4-cyclopropyl-2-(2-(difluoromethoxy)-7-methylquinoxalin-5-yl)thiazole] to `Cc1cc(-c2nc(C(=O)N3CCC(CO)CC3)cs2)c2ncc(OC(F)F)nc2c1` [Example 33, (2-(2-(difluoromethoxy)-7-methylquinoxalin-5-yl)thiazol-4-yl)(4-(hydroxymethyl)piperidin-1-yl)methanone], the IC50 rises from 300 nM to 570 nM (1.9-fold). The first is the more potent here.

`Cc1cc(-c2nc(C)c(-c3c(O)cccc3F)s2)c2ncc(OC(F)F)nc2c1` [Example 12, 2-(2-(2-(difluoromethoxy)-7-methylquinoxalin-5-yl)-4-methylthiazol-5-yl)-3-fluoropheno] and `Cc1cc(-c2ncc(-c3c(O)cccc3F)s2)c2ncc(OC(F)F)nc2c1` [Example 24, 2-(2-(2-(difluoromethoxy)-7-methylquinoxalin-5-yl)thiazol-5-yl)-3-fluorophenol] are within 1.5-fold of each other in IC50: 8.1 nM for the first, 8.3 nM for the second.

First: Cc1cc(-c2ncc(N3CCCCC3)s2)c2ncc(OC(F)F)nc2c1 [Example 13, 2-(2-(difluoromethoxy)-7-methylquinoxalin-5-yl)-5-(piperidin-1-yl)thiazole]
Second: Cc1cc(-c2ncc(C3CCCCC3)s2)c2ncc(OC(F)F)nc2c1 [Example 17, 5-cyclohexyl-2-(2-(difluoromethoxy)-7-methylquinoxalin-5-yl)thiazole]
The IC50 of the first is 6.2-fold lower: 12 nM for the first, 75 nM for the second. The first is the more potent here.

Compared with `Cc1cc(-c2ncc(-c3cncc(O)c3)s2)c2ncc(OC(F)F)nc2c1` [Example 14, 5-(2-(2-(difluoromethoxy)-7-methylquinoxalin-5-yl)thiazol-5-yl)pyridin-3-ol], `Cc1cc(-c2ncc(-c3cc(O)cc(F)c3)s2)c2ncc(OC(F)F)nc2c1` [Example 26, 3-(2-(2-(difluoromethoxy)-7-methylquinoxalin-5-yl)thiazol-5-yl)-5-fluorophenol] is 7.4-fold lower in IC50: 170 nM for the first, 23 nM for the second.

Going from `Cc1cc(-c2ncc(-c3ccccc3C(F)(F)F)s2)c2ncc(OC(F)F)nc2c1` [Example 16, 2-(2-(difluoromethoxy)-7-methylquinoxalin-5-yl)-5-(2-(trifluoromethyl)phenyl)thiazole] to `Cc1cc(-c2ncc(-c3cc(O)ccc3OC(F)(F)F)s2)c2ncc(OC(F)F)nc2c1` [Example 27], the IC50 falls from 110 nM to 20 nM (5.5-fold).

First: COCc1cnc2c(-c3ncc(-c4ccccc4)s3)cc(C)cc2n1 [Example 18, 2-(2-(methoxymethyl)-7-methylquinoxalin-5-yl)-5-phenylthiazole]
Second: Cc1cc(-c2ncc(-c3cccnc3)s2)c2ncc(OC(F)F)nc2c1 [Example 29, 2-(2-(difluoromethoxy)-7-methylquinoxalin-5-yl)-5-(pyridin-3-yl)thiazole]
The IC50 of the first is 9.7-fold lower: 6.2 nM for the first, 60 nM for the second. The first is the more potent here.

Compared with `Cc1cc(-c2ncc(-c3cccc(F)c3O)s2)c2ncc(OC(F)F)nc2c1` [Example 19, 2-(2-(2-(difluoromethoxy)-7-methylquinoxalin-5-yl)thiazol-5-yl)-6-fluorophenol], `Cc1cc(-c2ncc(-c3cccc(Cl)c3O)s2)c2ncc(OC(F)F)nc2c1` [Example 23, 2-(2-(2-(difluoromethoxy)-7-methylquinoxalin-5-yl)thiazol-5-yl)-6-chlorophenol] is 2.4-fold higher in IC50: 5.9 nM for the first, 14 nM for the second.

First: Cc1cc(-c2ncc(-c3cc(F)ccc3O)s2)c2ncc(OC(F)F)nc2c1 [Example 21, 2-(2-(2-(difluoromethoxy)-7-methylquinoxalin-5-yl)thiazol-5-yl)-4-fluorophenol]
Second: Cc1cc(-c2ncc(-c3cc(Cl)ccc3O)s2)c2ncc(OC(F)F)nc2c1 [Example 22, 2-(2-(2-(difluoromethoxy)-7-methylquinoxalin-5-yl)thiazol-5-yl)-4-chlorophenol]
The IC50 of the first is 2-fold lower: 8.8 nM for the first, 18 nM for the second. The first is the more potent here.

First: Cc1cc(-c2ncc(-c3cc(O)ccc3F)s2)c2ncc(OC(F)F)nc2c1 [Example 25, 3-(2-(2-(difluoromethoxy)-7-methylquinoxalin-5-yl)thiazol-5-yl)-4-fluorophenol]
Second: COc1ccc(NC(=O)c2csc(-c3cc(C)cc4nc(OC(F)F)cnc34)n2)cc1 [Example 32, 2-(2-(difluoromethoxy)-7-methylquinoxalin-5-yl)-N-(4-methoxyphenyl)thiazole-4-carboxamide]
The IC50 of the first is 150-fold lower: 15 nM for the first, 2300 nM for the second. The first is the more potent here.

`CCNC(=O)c1cnc(-c2cc(C)cc3nc(OC)cnc23)s1` [Example 31, N-ethyl-2-(2-methoxy-7-methylquinoxalin-5-yl)thiazole-5-carboxamide] was tested, and the IC50 was 450 nM.
